Reference: the supplement of paper PMC10307832

Tests used:
Assay in all cases: relative viability (nuclei count vs DMSO), 5 days (fraction); higher = more cells survive
[1] = tested on: HCC-78
Method in brief: (§1)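 After 5 days of treatment, lung cancer cells in 1536-well plates were fixed and stained in a single step (final 0.05% Triton X-100, 1% formaldehyde, 1 ug/ml Hoechst) and their nuclei counted on 4× images. Treatment had been applied by pin tool the day after seeding as one drug alone or as a fixed anchor-drug dose with five library-drug doses (not always all listed) in √10 steps. Relative viability is the nuclei count of treated wells divided by that of vehicle wells, and values are medians of duplicate plates.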

[2] = tested on: NCI-H1793
Method in brief: as §1

[3] = tested on: HOP-62
Method in brief: as §1

[4] = tested on: NCI-H1792
Method in brief: as §1

[5] = tested on: LC-2-ad
Method in brief: as §1

[6] = tested on: NCI-H1944
Method in brief: as §1

[7] = tested on: NCI-H1915
Method in brief: as §1

[8] = tested on: LXF-289
Method in brief: as §1

[9] = tested on: LCLC-97TM1
Method in brief: as §1

[10] = tested on: NCI-H2170
Method in brief: as §1

[11] = tested on: EPLC-272H
Method in brief: as §1

[12] = tested on: HCC-366
Method in brief: as §1

[13] = tested on: A-427
Method in brief: as §1

[14] = tested on: NCI-H1755
Method in brief: as §1

[15] = tested on: NCI-H2342
Method in brief: as §1

[16] = tested on: NCI-H2085
Method in brief: as §1

[17] = tested on: NCI-H358
Method in brief: as §1

[18] = tested on: SW 900
Method in brief: as §1

[19] = tested on: NCI-H460
Method in brief: as §1

[20] = tested on: LU99A
Method in brief: as §1

[21] = tested on: NCI-H1975
Method in brief: as §1

COc1cc(N2CCC(C(N)=O)CC2)ccc1Nc1nc(N)c(Cl)c(Nc2ccccc2S(=O)(=O)C(C)C)n1 [HG-5-88-01] + NC(=O)Nc1cc(-c2cccc(F)c2)sc1C(=O)N[C@H]1CCCNC1 [AZD7762] (partner 0.2 µM)
relative viability ([1]; first compound 0.04 µM): 0.576
relative viability ([1]; first compound 0.1265 µM): 0.553
relative viability ([1]; first compound 0.4 µM): 0.472
relative viability ([1]; first compound 1.265 µM): 0.361
relative viability ([1]; first compound 4 µM): 0.364
relative viability ([2]; first compound 0.04 µM): 0.557
relative viability ([2]; first compound 0.1265 µM): 0.409
relative viability ([2]; first compound 0.4 µM): 0.379
relative viability ([2]; first compound 1.265 µM): 0.452
relative viability ([2]; first compound 4 µM): 0.186
relative viability ([3]; first compound 0.04 µM): 0.463
relative viability ([3]; first compound 0.1265 µM): 0.736
relative viability ([3]; first compound 0.4 µM): 0.654
relative viability ([3]; first compound 1.265 µM): 0.55
relative viability ([3]; first compound 4 µM): 0.584
relative viability ([4]; first compound 0.04 µM): 0.752
relative viability ([4]; first compound 0.1265 µM): 0.648
relative viability ([4]; first compound 0.4 µM): 0.645
relative viability ([4]; first compound 1.265 µM): 0.581
relative viability ([4]; first compound 4 µM): 0.557
relative viability ([5]; first compound 0.04 µM): 0.888
relative viability ([5]; first compound 0.1265 µM): 0.76
relative viability ([5]; first compound 0.4 µM): 0.787
relative viability ([5]; first compound 1.265 µM): 0.857
relative viability ([5]; first compound 4 µM): 0.87
relative viability ([6]; first compound 0.04 µM): 0.586
relative viability ([6]; first compound 0.1265 µM): 0.503
relative viability ([6]; first compound 0.4 µM): 0.434
relative viability ([6]; first compound 1.265 µM): 0.514
relative viability ([6]; first compound 4 µM): 0.469
relative viability ([7]; first compound 0.04 µM): 0.69
relative viability ([7]; first compound 0.1265 µM): 0.697
relative viability ([7]; first compound 0.4 µM): 0.689
relative viability ([7]; first compound 1.265 µM): 0.741
relative viability ([7]; first compound 4 µM): 0.463
relative viability ([8]; first compound 0.04 µM): 1.11
relative viability ([8]; first compound 0.1265 µM): 1.05
relative viability ([8]; first compound 0.4 µM): 1.06
relative viability ([8]; first compound 1.265 µM): 1.12
relative viability ([8]; first compound 4 µM): 1.11
relative viability ([9]; first compound 0.04 µM): 0.251
relative viability ([9]; first compound 0.1265 µM): 0.262
relative viability ([9]; first compound 0.4 µM): 0.231
relative viability ([9]; first compound 1.265 µM): 0.225
relative viability ([9]; first compound 4 µM): 0.0952
relative viability ([10]; first compound 0.04 µM): 0.819
relative viability ([10]; first compound 0.1265 µM): 0.878
relative viability ([10]; first compound 0.4 µM): 0.907
relative viability ([10]; first compound 1.265 µM): 0.402
relative viability ([10]; first compound 4 µM): 0.934
relative viability ([11]; first compound 0.04 µM): 0.215
relative viability ([11]; first compound 0.1265 µM): 0.222
relative viability ([11]; first compound 0.4 µM): 0.203
relative viability ([11]; first compound 1.265 µM): 0.234
relative viability ([11]; first compound 4 µM): 0.0657
relative viability ([12]; first compound 0.04 µM): 0.286
relative viability ([12]; first compound 0.1265 µM): 0.294
relative viability ([12]; first compound 0.4 µM): 0.249
relative viability ([12]; first compound 1.265 µM): 0.234
relative viability ([12]; first compound 4 µM): 0.199
relative viability ([13]; first compound 0.04 µM): 0.67
relative viability ([13]; first compound 0.1265 µM): 0.776
relative viability ([13]; first compound 0.4 µM): 0.744
relative viability ([13]; first compound 1.265 µM): 0.656
relative viability ([13]; first compound 4 µM): 0.679
relative viability ([14]; first compound 0.04 µM): 0.465
relative viability ([14]; first compound 0.1265 µM): 0.476
relative viability ([14]; first compound 0.4 µM): 0.419
relative viability ([14]; first compound 1.265 µM): 0.449
relative viability ([14]; first compound 4 µM): 0.516
relative viability ([15]; first compound 0.04 µM): 0.47
relative viability ([15]; first compound 0.1265 µM): 0.489
relative viability ([15]; first compound 0.4 µM): 0.447
relative viability ([15]; first compound 4 µM): 0.408
relative viability ([16]; first compound 0.04 µM): 1.08
relative viability ([16]; first compound 0.1265 µM): 0.969
relative viability ([16]; first compound 0.4 µM): 0.922
relative viability ([16]; first compound 1.265 µM): 0.964
relative viability ([16]; first compound 4 µM): 0.667
relative viability ([17]; first compound 0.04 µM): 0.498
relative viability ([17]; first compound 0.1265 µM): 0.503
relative viability ([17]; first compound 0.4 µM): 0.451
relative viability ([17]; first compound 1.265 µM): 0.223
relative viability ([17]; first compound 4 µM): 0.245
relative viability ([18]; first compound 0.04 µM): 0.582
relative viability ([18]; first compound 0.1265 µM): 0.713
relative viability ([18]; first compound 0.4 µM): 0.583
relative viability ([18]; first compound 1.265 µM): 0.517
relative viability ([18]; first compound 4 µM): 0.528
relative viability ([19]; first compound 0.04 µM): 0.7
relative viability ([19]; first compound 0.1265 µM): 0.63
relative viability ([19]; first compound 0.4 µM): 0.561
relative viability ([19]; first compound 1.265 µM): 0.611
relative viability ([19]; first compound 4 µM): 0.592
relative viability ([20]; first compound 0.04 µM): 0.326
relative viability ([20]; first compound 0.1265 µM): 0.336
relative viability ([20]; first compound 0.4 µM): 0.369
relative viability ([20]; first compound 1.265 µM): 0.366
relative viability ([20]; first compound 4 µM): 0.295
relative viability ([21]; first compound 0.04 µM): 0.757
relative viability ([21]; first compound 0.1265 µM): 0.756
relative viability ([21]; first compound 0.4 µM): 0.603
relative viability ([21]; first compound 1.265 µM): 0.328
relative viability ([21]; first compound 4 µM): 0.348

CC(C)Oc1cc(Nc2nc(N[C@@H](C)c3ccc(F)cn3)ncc2Cl)n[nH]1 [AZ23] + NC(=O)Nc1cc(-c2cccc(F)c2)sc1C(=O)N[C@H]1CCCNC1 [AZD7762] (partner 0.2 µM)
relative viability ([1]; first compound 0.01 µM): 0.516
relative viability ([1]; first compound 0.03162 µM): 0.697
relative viability ([1]; first compound 0.3162 µM): 0.681
relative viability ([2]; first compound 0.01 µM): 0.361
relative viability ([2]; first compound 0.03162 µM): 0.498
relative viability ([2]; first compound 0.3162 µM): 1.3
relative viability ([3]; first compound 0.01 µM): 0.493
relative viability ([3]; first compound 0.03162 µM): 0.804
relative viability ([3]; first compound 0.3162 µM): 0.863
relative viability ([4]; first compound 0.01 µM): 0.595
relative viability ([4]; first compound 0.03162 µM): 0.515
relative viability ([4]; first compound 0.3162 µM): 0.904
relative viability ([5]; first compound 0.01 µM): 1.04
relative viability ([5]; first compound 0.03162 µM): 1.05
relative viability ([5]; first compound 0.3162 µM): 1.02
relative viability ([6]; first compound 0.01 µM): 0.413
relative viability ([6]; first compound 0.03162 µM): 0.532
relative viability ([6]; first compound 0.3162 µM): 0.646
relative viability ([7]; first compound 0.01 µM): 0.758
relative viability ([7]; first compound 0.03162 µM): 0.737
relative viability ([7]; first compound 0.3162 µM): 0.796
relative viability ([8]; first compound 0.01 µM): 1.14
relative viability ([8]; first compound 0.03162 µM): 1.24
relative viability ([8]; first compound 0.3162 µM): 1.27
relative viability ([9]; first compound 0.01 µM): 0.239
relative viability ([9]; first compound 0.03162 µM): 0.327
relative viability ([9]; first compound 0.3162 µM): 0.175
relative viability ([10]; first compound 0.01 µM): 0.885
relative viability ([10]; first compound 0.03162 µM): 0.887
relative viability ([10]; first compound 0.3162 µM): 1.06
relative viability ([11]; first compound 0.03162 µM): 0.254
relative viability ([11]; first compound 0.3162 µM): 0.251
relative viability ([12]; first compound 0.01 µM): 0.239
relative viability ([12]; first compound 0.03162 µM): 0.423
relative viability ([12]; first compound 0.3162 µM): 0.496
relative viability ([13]; first compound 0.01 µM): 0.462
relative viability ([13]; first compound 0.03162 µM): 0.724
relative viability ([13]; first compound 0.3162 µM): 1.01
relative viability ([14]; first compound 0.01 µM): 0.413
relative viability ([14]; first compound 0.03162 µM): 0.471
relative viability ([14]; first compound 0.3162 µM): 0.477
relative viability ([15]; first compound 0.01 µM): 0.442
relative viability ([15]; first compound 0.03162 µM): 0.569
relative viability ([15]; first compound 0.3162 µM): 0.483
relative viability ([16]; first compound 0.01 µM): 0.923
relative viability ([16]; first compound 0.03162 µM): 0.975
relative viability ([16]; first compound 0.3162 µM): 1.08
relative viability ([17]; first compound 0.01 µM): 0.447
relative viability ([17]; first compound 0.03162 µM): 0.653
relative viability ([17]; first compound 0.3162 µM): 0.514
relative viability ([18]; first compound 0.01 µM): 0.556
relative viability ([18]; first compound 0.3162 µM): 0.74
relative viability ([19]; first compound 0.01 µM): 0.722
relative viability ([19]; first compound 0.03162 µM): 0.751
relative viability ([19]; first compound 0.3162 µM): 0.799
relative viability ([20]; first compound 0.01 µM): 0.269
relative viability ([20]; first compound 0.03162 µM): 0.444
relative viability ([20]; first compound 0.3162 µM): 0.507
relative viability ([21]; first compound 0.01 µM): 0.555
relative viability ([21]; first compound 0.03162 µM): 0.799
relative viability ([21]; first compound 0.3162 µM): 0.828
